Results on twelve molecules are retold here after EP1342719B1, “Benzodiazepine derivatives useful as CCK-Receptor Antagonists” (Ferring BV, priority 1992, dated 1993).

Like-named read-outs stand apart in the source and are kept apart here.

The target in one assay is T1, CCK-A receptors (Rattus norvegicus, UniProt P30551).
T1 construct: The pancreas of an SD rat was homogenized; from tissue; host or cells: SD rat pancreas membrane preparation
T1 sequence (P30551 1-444): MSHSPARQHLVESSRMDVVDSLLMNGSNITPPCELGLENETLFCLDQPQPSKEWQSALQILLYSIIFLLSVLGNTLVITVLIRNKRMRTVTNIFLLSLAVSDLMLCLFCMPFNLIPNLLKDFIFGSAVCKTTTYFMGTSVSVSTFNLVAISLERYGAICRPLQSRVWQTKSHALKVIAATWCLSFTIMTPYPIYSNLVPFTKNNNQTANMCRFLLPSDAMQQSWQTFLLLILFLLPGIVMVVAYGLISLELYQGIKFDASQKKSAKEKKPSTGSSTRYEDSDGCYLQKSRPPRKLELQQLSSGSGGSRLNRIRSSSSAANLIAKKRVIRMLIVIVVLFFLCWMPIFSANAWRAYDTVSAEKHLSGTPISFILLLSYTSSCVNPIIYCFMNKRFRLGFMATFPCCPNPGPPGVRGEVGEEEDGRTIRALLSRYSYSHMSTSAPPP
Description: Measurement of binding affinity for CCK-A receptors ([3H]L-364,718 displacement, pancreas membrane preparation). On the set-up: species or system SD rat. The method, then: The pancreas of an SD rat was homogenized in a 20-fold volume of 50 mM Tris-HCl buffer (pH 7.7) by the use of a Polytrone-type homogenizer, the homogenate was twice centrifuged for 10 minutes at 50000 g by the use of an ultra-centrifuge, the precipitate thus obtained was suspended in a 40-fold volume of 50 mM Tris-HCl buffer (containing 0.2% BSA, 5 mM MgCl2, 0.1 mg/ml bacitracin and 5 mM DTT; pH 7.7), and the suspension was stored at -80°C until the membrane preparations were required.
The membrane preparations were then warmed to room temperature, diluted 1:10 with the buffer and incubated at 37°C for 30 minutes in the presence of [^3H]L-364,718 and the test compound then separated by suction filtration. Non-specific binding was determined in the presence of 1 µM L-364,718. The amount of labelled ligand bound to the receptor was measured by the use of a liquid scintillation counter; IC50 values were determined, being that concentration of test compound required to inhibit specific binding by 50%

Assay [1] has as its system pentagastrin-stimulated gastric acid secretion. Nature of the assay: Inhibition of pentagastrin-stimulated gastric acid secretion in dog (Heidenhain pouch). The class given is in vivo, male beagle dogs. As to conditions: maximum inhibition of stimulated acid output, oral, pentagastrin 8 µg/kg/hr infusion, mean for 3 - 5 animals. The method, then: Assays were performed using male beagle dogs (7 - 12 kg) two months after surgical preparation of Heidenhain pouches following the conventional procedure. Each dog was used only once per week.
The animals were deprived of food with free access to water for 18 hr prior to the experiment. The gastric juice was collected from the gastric canula by gravity drainage every 15 min, and acid output was determined by automatic titration with 0.05 N NaOH to pH 7.0 (Comtite-7, Hiranuma, Tokyo, Japan). Drugs were administered orally 3 hr after the start of the pentagastrin (8 µg/kg/hr) infusion. The effect of each drug was calculated as the percentage inhibition of stimulated acid output. […] Each result is a mean for 3 - 5 animals.

The next assay has as its target T2, CCK-B receptors (Rattus norvegicus, UniProt P30553).
T2 construct: the whole brain was immediately excised from each of the rats and homogenized; from tissue; host or cells: SD rat whole-brain membrane preparation
Nature of the assay: Measurement of binding affinity for CCK-B receptors ([125I]BH-CCK-8 displacement, brain membrane preparation). Also on record: species or system SD rats. As to conditions: for A/B Ratio: selectivity, ratio IC50 (CCK-A)/IC50 (CCK-B). Here is the method: About 100 SD rats were decapitated without anaesthesia, the whole brain was immediately excised from each of the rats and homogenized in 10-fold volume of 0.32 M aqueous solution of sucrose by the use of a Teflon-coated homogenizer, the homogenate thus obtained was centrifuged for ten minutes at 900 g by the use of a cooled centrifuge, and the supernatant was further centrifuged for 15 minutes at 11500 g. The precipitate thus obtained was dispersed in 50 mM Tris-HCl buffer (pH 7.4) containing 0.08% Triton X-100, this suspension was allowed to stand for 30 minutes and again centrifuged for 15 minutes at 11500 g, the precipitate thus obtained was washed twice with 5 mM Tris-HCl buffer and twice with 50 mM Tris-HCl buffer in that order with centrifugal separation, the washed precipitate was suspended in 50 mM Tris-HCl buffer, and the suspension thus obtained was stored at -80°C until the membrane preparation was required.
The membrane preparations were warmed to room temperature, diluted with 10 mM HEPES buffer (containing 130 mM NaCl, 5 mM MgCl2, 1 mM EGTA and 0.25 mg/ml bacitracin; pH 6.5) and incubated at 25°C for 120 minutes in the presence of [^125I]BH-CCK-8 and the test compound, then separated by suction filtration. Non-specific binding was determined in the presence of 1 µM CCK-8. The amount of labelled ligand bound to the receptor was measured by the use of a γ-counter; IC50 values were determined, being that concentration of test compound required to inhibit specific binding by 50%.

Setting [2] is: rat pancreas membranes, [3H]L-364,718, 37°C, 30 minutes, read-out: Receptor binding affinity IC50(nM) CCK-A.
Where [3] appears, read: rat whole brain membranes, [125I]BH-CCK-8, 25°C, 120 minutes, read-out: Receptor binding affinity IC50(nM) CCK-B.

T2 sequence (P30553 whole entry): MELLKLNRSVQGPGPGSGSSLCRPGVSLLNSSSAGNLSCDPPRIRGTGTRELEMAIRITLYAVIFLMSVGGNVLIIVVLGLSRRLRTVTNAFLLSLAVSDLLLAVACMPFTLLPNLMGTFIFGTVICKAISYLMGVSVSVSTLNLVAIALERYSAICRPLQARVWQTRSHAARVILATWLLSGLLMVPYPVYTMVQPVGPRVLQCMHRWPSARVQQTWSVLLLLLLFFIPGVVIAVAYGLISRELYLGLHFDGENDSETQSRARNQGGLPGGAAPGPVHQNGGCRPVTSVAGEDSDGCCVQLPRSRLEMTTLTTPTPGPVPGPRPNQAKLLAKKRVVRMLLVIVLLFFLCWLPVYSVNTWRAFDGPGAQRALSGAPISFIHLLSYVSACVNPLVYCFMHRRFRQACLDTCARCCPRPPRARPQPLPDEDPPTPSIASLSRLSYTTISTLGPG

One may read the IC50 as the midpoint of a concentration-inhibition curve. For `Cc1cccc(NC(=O)N[C@@H]2N=C(c3ccccc3)c3ccccc3N(C)C2=O)c1` [reference compound], the IC50 on CCK-A receptors (setting [2]) turned out to be 12000 nM; at CCK-B receptors (setting [3]) it was 29 nM. Also, in assay [1] (100 µmol/kg), the “Inhibidon (dose)” value was 0% (100 µmol/kg). For the same molecule, the “A/B Ratio” value at CCK-B receptors came to 410.

Turning to `CN(C)c1cccc(NC(=O)NC2N=C(c3ccccn3)c3ccccc3N(CC(=O)C(C)(C)C)C2=O)c1` (racemic) [Example 38, N-((3RS)-1-tert-Butylcarbonylmethyl-2,3-dihydro-2-oxo-5-(2-pyridyl)-1H-1,4-benzodiazepin-3-yl)-N'-(3-dimethylaminophenyl) urea], in assay [1] (3 µmol/kg), the “Inhibidon (dose)” value is listed as 100% (3 µmol/kg).

Turning to `CC(C)(C)C(=O)CN1C(=O)C(NC(=O)Nc2cccc(C(=O)O)c2)N=C(c2ccccn2)c2ccccc21` (racemic) [Example 39, N-((3RS)-1-tert-Butylcarbonylmethyl-2,3-dihydro-2-oxo-5-(2-pyridyl)-1H-1,4-benzodiazepin-3-yl)-N'-(3-carboxyphenyl) urea], the IC50 at CCK-A receptors is 240 nM. Further, on CCK-B receptors, the half-maximal inhibitory concentration (IC50) is 0.1 nM and the “A/B Ratio” value is listed as 2,400.

Consider `Cc1cccc(NC(=O)N[C@@H]2N=C(c3ccccc3)c3ccccc3N(CC(=O)C(C)(C)C)C2=O)c1` [Example 26, N-((3R)-1-tert-Butylcarbonylmethyl-2,3-dihydro-2-oxo-5-phenyl-1H-1,4-benzodiazepin-3-yl)-N'-(3-methylphenyl) urea], for which the “Inhibidon (dose)” value in assay [1] (3 µmol/kg) is reported as 53% (3 µmol/kg).

Molecule `CC(C)(C)C(=O)CN1C(=O)C(NC(=O)Nc2cccc([N+](=O)[O-])c2)N=C(c2ccccc2)c2ccccc21` (racemic) [Example 45, N-((3RS)-1-tert-Butylcarbonylmethyl-2,3-dihydro-2-oxo-5-phenyl-1H-1,4-benzodiazepin-3-yl)-N'-(3-nitrophenyl) urea] returned an IC50 at CCK-A receptors of 590 nM. The “A/B Ratio” value at CCK-B receptors was 3,700.

In turn, `CN(C)c1cccc(NC(=O)NC2N=C(c3ccccc3)c3ccccc3N(CC(=O)C(C)(C)C)C2=O)c1` (racemic) [Example 41, N-((3RS)-1-tert-Butylcarbonylmethyl-2,3-dihydro-2-oxo-5-phenyl-1H-1,4-benzodiazepin-3-yl)-N'-(3-dimethylaminophenyl) urea] displayed an IC50 on CCK-A receptors of 6700 nM. On CCK-B receptors, the IC50 turned out to be 6.2 nM and the “A/B Ratio” value is given as 1,100.

As for `CN(C)c1cccc(NC(=O)N[C@@H]2N=C(c3ccccc3)c3ccccc3N(CC(=O)C(C)(C)C)C2=O)c1` [Example 64, N-((3R)-1-tert-Butylcarbonylmethyl-2,3-dihydro-2-oxo-5-phenyl-1H-1,4-benzodiazepin-3-yl)-N'-(3-dimethylaminophenyl) urea], in assay [1] (3 µmol/kg), the “Inhibidon (dose)” value was 100% (3 µmol/kg).

Turning to `CC(C)(C)C(=O)CN1C(=O)[C@H](NC(=O)Nc2cccc(N)c2)N=C(c2ccccc2)c2ccccc21` [Example 66, N-((3R)-1-tert-Butylcarbonylmethyl-2,3-dihydro-2-oxo-5-phenyl-1H-1,4-benzodiazepin-3-yl)-N'-(3-aminophenyl) urea], the IC50 on CCK-A receptors (setting [2]) was found to be 950 nM; at CCK-B receptors (setting [3]), 0.5 nM. The “A/B Ratio” value on CCK-B receptors is 1,900.

In the case of `CCC(C)(C)C(=O)CN1C(=O)C(NC(=O)Nc2cccc(C)c2)N=C(c2ccccc2)c2ccccc21` (racemic) [Example 36, N-((3RS)-1-tert-Amylcarbonylmethyl-2,3-dihydro-2-oxo-5-phenyl-1H-1,4-benzodiazepin-3-yl)-N'-(3-methylphenyl) urea], on CCK-A receptors, the IC50 was 720 nM. In addition, on CCK-B receptors, the IC50 came to 0.57 nM and the “A/B Ratio” value is on record as 1,300.

`CNc1cccc(NC(=O)N[C@@H]2N=C(c3ccccc3)c3ccccc3N(CC(=O)C(C)(C)C)C2=O)c1` [Example 56, N-((3R)-1-tert-Butylcarbonylmethyl-2,3-dihydro-2-oxo-5-phenyl-1H-1,4-benzodiazepin-3-yl)-N'-(3-methylaminophenyl) urea]: the IC50 at CCK-A receptors (setting [2]) was determined as 120 nM; on CCK-B receptors (setting [3]), 0.11 nM. Also, the “A/B Ratio” value at CCK-B receptors is on record as 1,100.

Regarding `CCC(C)(C)C(=O)CN1C(=O)C(NC(=O)Nc2cccc(C(=O)O)c2)N=C(c2ccccc2)c2ccccc21` (racemic) [Example 37, N-((3RS)-1-tert-Amylcarbonylmethyl-2,3-dihydro-2-oxo-5-phenyl-1H-1,4-benzodiazepin-3-yl)-N'-(3-carboxyphenyl) urea], the IC50 stood at 5600 nM on CCK-A receptors and 1.1 nM on CCK-B receptors. The “A/B Ratio” value on CCK-B receptors is recorded as 5,100.

For the molecule `Cc1cccc(NC(=O)NC2N=C(c3ccccn3)c3ccccc3N(CC(=O)C(C)(C)C)C2=O)c1` (racemic) [Example 27, N-((3RS)-1-tert-Butylcarbonylmethyl-2,3-dihydro-2-oxo-5-(2-pyridyl)-1H-1,4-benzodiazepin-3-yl)-N'-(3-methylphenyl) urea], the “Inhibidon (dose)” value in assay [1] (3 µmol/kg) is 66% (3 µmol/kg).
